We go through one compound from US7781580B2, “Stilbene derivatives as new cancer therapeutic agents” (Virginia Commonwealth University, priority 2007, dated 2010).

One data set has as its system UCI101 cells. As to the kind of experiment: immunofluorescent staining of tubulin, UCI101. The format is cell-based. The note with it: CA4 10 nM, stilbene 4a 100 nM, 5b 3 μM; 16 hours. The source says:
Nuclei were stained with DAPI.

The test system of the next data set is Chk2−/− cells. As to the kind of experiment: cell cycle analysis, Chk2-/- MDA-MB231 derivative. The format is cell-based. Here is the method: (§1) Cells were treated with various concentrations of stilbene 4a or CA4 for 16 hours followed by PI staining and FACscan analysis. […] A unique feature of stilbene 4a was noted when cells were treated with 30 nM.
(§2) Due to the structural similarity between stilbene 4a and CA4, we investigated the difference in the biological activity of these two compounds in MDA-MB231 breast cancer cells and their Chk2−/− derivatives. […] MDA-MB231 cells were treated with 10 nM stilbene 4a or 1 nM CA4. […] However, a difference in cell cycle change was observed following treatment with 30 nM of stilbene 4a versus 3 nM of CA4. […] This was also the case for cells treated with 100 nM stilbene 4a. A significant subG1/0 population was also noted. […] One possible effect could be a DNA damage response, which is a common mechanism of multiple chemotherapeutic agents but not one of pure microtubule-interfering agents such a paclitaxel or vincristine. […] We then obtained conditional Chk1−/− and Chk2−/− cells, which were derived from the same MDA-MB231 cells for the same flow cytometry analysis. […] In contrast, Chk2−/− cells were more sensitive to stilbene 4a. […] This mechanism is not obvious in higher drug concentrations at which the G2 arrest from microtubule interference is dominant. Therefore, in addition to their microtubule interfering effect, stilbenes have another mechanism to induce cell death. Thus, the use of a Chk2 inhibitor in combination with stilbenes may be a viable approach to enhancing the beneficial therapeutic effects of stilbenes.

The test system of another data set is MDA-MB231 cells. As to the kind of experiment: immunofluorescent staining of tubulin, MDA-MB231. Particulars: CA4 10 nM, stilbene 4a 100 nM, vincristine 100 nM, 5b 3 μM; 16 hours. The format is cell-based. The source says: Nuclei were stained with 4′,6-diamidino-2-phenylindole (DAPI). Control cells show the reticular pattern of the microtubule network.
Data set [1] relates to Hep3B hepatocellular carcinoma cells (xenograft). Nature of the data set: DCE-MRI tumor vascular perfusion, Hep3B xenograft. The format is in vivo, mice. Particulars: 50 mg/kg intraperitoneally. The procedure:
Mice with established tumor xenografts were used for this study. […] Tumor and kidney, as the representative normal organ, were marked by arrowheads. […] Mice were then left overnight to wash out gadolinium and treated with stilbene 4a at 50 mg/kg intraperitoneally. 4 hours after stilbene injection, mice were imaged with the same protocol. […] Only a small amount of residual gadolinium was still in the tissues.
In order to establish that stilbene suppresses tumor perfusion by damaging tumor endothelial cells, we first incubated human vascular endothelial cells with various concentrations of stilbenes in vitro. After 24 hours of incubation, cells were then fixed with 2% paraformaldehyde and stained with anti-tubulin antibody to examine the tubulin disruption and with DAPI to analyze nuclear fragmentation. Dynamic-contrast enhanced magnetic resonance imaging (MRI) scanning was used to investigate tumor perfusion in vivo. Immunodeficient nude mice were first injected with Hep3B hepatocellular carcinoma cells subcutaneously. […] A region of interest (ROI) was chosen from the scan and the MRI signal in the ROI was plotted against time and the initial steepest slope of the curve was calculated to represent the maximal perfusion of the ROI. […] The perfusion rate of the muscle region was normalized and set at 100% and the rate of perfusion in tumor was calculated versus the muscle. […]

Data set [2] relates to MDA-MB231 breast cancer cells. As to the kind of experiment: cell cycle analysis, MDA-MB231. The format is cell-based. Particulars: 16 hours. Here is the method: as §1, §2
A short description of data set [3]: acute toxicity in dose escalating study. Particulars: 100 mg/kg intraperitoneally. The format is in vivo, mice. The procedure:
Acute toxicity in dose escalating study: We investigated the efficacy of stilbene 4a in vivo using mouse xenograft model. First we determined the maximal tolerated dose of stilbene 4a since it has a higher potency in vitro. […] Subsequently mice fully recovered 30 min after injection.

A further data set relates to Chk1−/− cells. Nature of the data set: cell cycle analysis, Chk1-/- MDA-MB231 derivative. The format is cell-based. Here is the method:
as §2

For a further data set, the system named is Tubulin (>99% pure). As to the kind of experiment: tubulin polymerization assay (OD 340 nm). The format is biochemical. Particulars: OD340 nm; nocodazole and paclitaxel 10 μM.

Each structure is given as a SMILES string.

Take `COc1cc(/C=C\c2ccc(OC)c(N)c2)cc(OC)c1` [4a, (Z)-5-[2-(3,5-Dimethoxy-phenyl)-vinyl]-2-methoxy-phenylamine]: the microtubule pattern entry in the data set on UCI101 cells is listed as “partial disruption of microtubules”; in the data set with MDA-MB231 cells, “did not completely disrupt microtubule formation”. Further, in the data set on Chk2−/− cells (10 nM), the “cell cycle change at 10 nM” value was “a significant subG1/0 population developed without G2 arrest”. The “change of effective concentration versus MDA-MB231” value in the data set with Chk2−/− cells (16 hours) is recorded as “decreased by three fold”. Moreover, the normal vascular perfusion result in data set [1] is “without compromising normal vascular perfusion”. Further, the “tumor vascular perfusion (gadolinium enhancement)” value in data set [1] (4 hours after injection) is given as “significantly less gadolinium enhancement”. In addition, the “cell cycle change at 30 nM” value in data set [2] (30 nM) is listed as “induced some degree of G2 arrest, but the ratio of G1/G2 did not reverse”. For the same compound, the “cell cycle change at 10 nM stilbene 4a or 1 nM CA4” value in data set [2] is given as “No change was observed”. The “acute toxicity at 100 mg/kg intraperitoneally” value in data set [3] is listed as “no sign of weakness was observed”. Further, the “sensitivity versus MDA-MB231” value in the data set on Chk1−/− cells is “more resistant”. In addition, the “effect on tubulin polymerization” value in the data set with Tubulin (>99% pure) is “suppressed polymerization in a dose-dependent manner”.
